According to patent US8703698B2, “Compositions and methods for treating atherosclerosis” (The University of Chicago, priority 2003, dated 2014):

Tests used:
ApoE knockout mice [1] = experiment: Prevention of aortic lesions in ApoE knockout mice on high fat diet; type: in vivo; settings: liposomes intravenously once every four days, five doses at 6 mg/kg; 20 days high fat diet
From the text: In prevention experiments, ApoE knockout mice were placed on a high fat diet and at the same time received once every four days liposomes containing a peptide corresponding to amino acids 1-20 of murine SAA2.1 (SEQ ID NO:1; Group 2 of FIG. 8A and Group hf+p1 of FIG. 8B), liposomes containing a peptide corresponding to amino acids 74-103 of murine SAA2.1 (SEQ ID NO:4; Group 4 of FIG. 8A and Group hf+p4 of FIG. 8B) or liposomes containing a peptide corresponding to amino acids 1-20 of murine SAA2.1 and a peptide corresponding to amino acids 74-103 of murine SAA2.1 (SEQ ID NO:1+SEQ ID NO:4; Group 5 of FIG. 8A and Group hf+p(1+4) of FIG. 8B). The control group received high fat diet alone with no liposomes (Group 1 of FIG. 8A and Group high fat of FIG. 8B). An additional group was placed on a normal mouse chow diet (Group 3 of FIG. 8A and Group low fat of FIG. 8B). […]
(§1) To assess the effects of the peptides on aortic atherosclerosis, at the termination of the experiment, the aorta was removed from the animals and opened longitudinally. The endothelial surface was stained with Oil Red O and the area occupied by lipid was measured by image analysis. Furthermore, histological sections of aorta were prepared for microscopic analysis and total lipids were isolated to measure the quantity of cholesterol per weight of tissue. […]

J774 macrophages = experiment: [3H]cholesterol efflux from cholesterol-loaded J774 macrophages in tissue culture; type: cell-based, mouse; settings: for cholesterol efflux compared to equimolar liposomes containing full length murine SAA2.1 protein (FIG. 10): cholesterol-laden J774 cells, equimolar concentrations; for cholesterol efflux as compared to controls (FIGS. 3A and 3B) / dose-response of cholesterol efflux (FIGS. 3A and 3B): liposomes; for cholesterol efflux as compared to controls (FIGS. 3A and 3B): peptide at 1 μM (alone printed 1 μl), cholesterol-laden murine macrophages; for dose-response of cholesterol efflux (FIGS. 3A and 3B): 0.05, 0.1, 0.5, 1.0, 2.5 and 5.0 μM; for total cellular [3H]cholesterol released into the medium: pre-incubated 4 hours with liposomes containing 0.5 μM peptide, then cultured in presence of HDL (50 μg/mL)
ApoE knockout mice [2] = experiment: Regression of aortic lesions in ApoE knockout mice on atherogenic diet; type: in vivo; settings: for aortic lesions, area stained with Oil Red O, versus high fat diet controls (FIGS. 7A and 7B): liposomes intravenously once every four days for two weeks, 6 mg/kg, after four weeks atherogenic diet; for color of livers versus untreated mice: preliminary examination, ApoE knockout mice on atherogenic diet
From the text: In regression experiments, ApoE knockout mice were placed on an atherogenic diet as described in Example 11 for four weeks, following which they were divided into two groups. One group continued on the diet for an additional two weeks. The other group continued on the diet for the same period but also received once every four days liposomes containing a peptide corresponding to amino acids 1-20 of murine SAA2.1 (SEQ ID NO:1; Group B of FIG. 7A and Group hf+p1 of FIG. 7B) or liposomes containing a peptide corresponding to amino acids 74-103 of murine SAA2.1 (SEQ ID NO:4; Group D of FIG. 7A and Group hf+p4 of FIG. 7B). The control group received high fat diet alone with no liposomes (Group A of FIG. 7A and Group high fat of FIG. 7B). An additional group was placed on a normal mouse chow diet (Group C of FIG. 7A and Group low fat of FIG. 7B). A further additional Group receiving liposomes containing a peptide corresponding to amino acids 1-20 of murine SAA2.1 (SEQ ID NO:1) and liposomes containing a peptide corresponding to amino acids 74-103 of murine SAA2.1 (SEQ ID NO:4) is depicted in FIG. 7B and is referred to as hf+p1+p4. FIG. 7B is inclusive of data present in FIG. 7A as well as data from a subsequent experiment performed under the same conditions. After the two weeks, the mice were killed and their aortas were dissected and stained with Oil Red O. Data of FIG. 7A depict the area stained with Oil Red O indicative of the actual lipid positive area as a percentage of the total aortic area viewed. Data of FIG. 7B depict the area stained with Oil Red O as a percentage relative to the high fat diet group (100%).
The efficacy of SAA2.1 peptides in regression of atherosclerosis was examined. The peptides tested included SEQ ID NO:1 and SEQ ID NO:4. The peptides were injected intravenously once every four (4) days during atherogenic induction for a period of 2 weeks (i.e. four doses at 6 mg/kg).
To determine if these peptides cause regression of atherosclerosis, the animals were placed on an atherogenic diet (Paigen's Atherogenic Rodent Diet: Purina 5015 with cocoa butter, cholesterol and cholic acid (CI3002, Research Diets, Inc.)) for […], following which they were divided into two groups of 5 animals each. One group continued on the diet for an additional two weeks. […]
as §1, with “cholesterol per wet weight of” for “cholesterol per weight of”

Sequence	aortic lesions, area stained with Oil Red O, versus control animals (FIGS. 8A and 8B) (ApoE knockout mice [1])	cholesterol efflux compared to equimolar liposomes containing full length murine SAA2.1 protein (FIG. 10) (J774 macrophages)	cholesterol efflux as compared to controls (FIGS. 3A and 3B) (J774 macrophages)	dose-response of cholesterol efflux (FIGS. 3A and 3B) (J774 macrophages)	total cellular [3H]cholesterol released into the medium (J774 macrophages) [%]	rate of [3H]cholesterol efflux into medium containing HDL (J774 macrophages; pre-incubation with liposomes containing 0.5 μM peptide, HDL as acceptor)	aortic lesions, area stained with Oil Red O, versus high fat diet controls (FIGS. 7A and 7B) (ApoE knockout mice [2])	color of livers versus untreated mice (ApoE knockout mice [2])
DTIADQEANRHGRSGKDPNYYRPPGLPDKY [SEQ ID NO:4, synthetic peptide, residues 74-103 of murine SAA2.1]	showed decreased aortic lesions	statistically significant greater cholesterol efflux	approximately 200%	increased with increasing amounts of each peptide alone	46.7 ± 3.1	significant increase in the rate	showed regression of aortic lesions	more normal reddish color
GFFSFVHEAFQGAGDMWRAY [SEQ ID NO:1, synthetic peptide, residues 1-20 of murine SAA2.1]	showed decreased aortic lesions	statistically significant greater cholesterol efflux	approximately 200%	increased with increasing amounts of each peptide alone	60.6 ± 3.6	–	showed regression of aortic lesions	more normal reddish color
